What was measured:
[1] = in situ conversion of norethindrone acetate to norethindrone in the transdermal formulation; assay type: physicochemical
[2] = cited from earlier work

## C#C[C@]1(OC(C)=O)CC[C@H]2[C@@H]3CCC4=CC(=O)CC[C@@H]4[C@H]3CC[C@@]21C [NEA, norethindrone acetate]
[1]
  conversion to norethindrone in situ in the transdermal formulation: does not convert to norethindrone in situ
[2]; FIG. 3 of U.S. Pat. No. 5,980,932
  time at which maximum skin flux for NEA is attained: only after the second day of administration
[2]; FIGS. 1 and 2 of U.S. Patent Application Publication No. 2003/0152615, in h
  time at which maximum NEA skin flux is obtained following administration: ~48

From US20050058695A1, “Norethindrone sustained release formulations and methods associated therewith” (Watson Pharmaccuticals, Inc., priority 2002, published 2005)
